Test results reported in patent publication US20240300943A1, “NOVEL SALTS OF HETEROCYCLIC COMPOUND AS PROTEIN KINASE INHIBITOR AND USES THEREOF” (HK INNO.N CORPORATION, priority 2021, published 2024).

Key:
[1] = biological target: TYK2 (Homo sapiens, UniProt P29597); test: ADP-Glo Tyk2 kinase assay; type: biochemical; details: read-out: IC50, In vitro enzyme TYK2
Description: 10 mM of Compound 1 was diluted in DMSO to prepare samples at five concentrations (5,000 nM, 500 nM, 50 nM, 5 nM, and 0.5 nM). 10 mM of ATP was diluted at 1/40 in 1× kinase buffer to make a preparation. 1 mg/mL of Poly (Glu4, Tyr1) peptide was used as a stock solution. 100 ng/μL of Tyk2 enzyme was diluted at ½ in 1× kinase buffer to make a preparation. 1 μL of ATP, 1 μL of Poly (Glu4, Tyr1) peptide, and 1 μL of Compound 1 prepared as above were mixed, after which 2 μL of Tyk2 enzyme was finally added and reacted at 30° C. for 40 minutes. At this time, a tube without […] enzyme was prepared for a blank and a tube without Compound 1 was prepared as a positive control group together (a final concentration of samples was 1,000 nM, 100 nM, 10 nM, 1 nM, and 0.1 nM).
(§1) Then, 5 μL of ADP-glo was added to each tube and reacted at 30° C. for 40 minutes, after which 10 μL of kinase detection reagent was added thereto and reacted at room temperature for 15 minutes. After 18 μL of the reactant was transferred to a 384 well plate, luminescence was measured using a plate reader.

[2] = biological target: T1, JAK3 (Homo sapiens, UniProt P52333); test: ADP-Glo JAK3 kinase assay; type: biochemical; details: read-out: IC50, In vitro enzyme JAK3
T1 sequence (P52333 1-1124): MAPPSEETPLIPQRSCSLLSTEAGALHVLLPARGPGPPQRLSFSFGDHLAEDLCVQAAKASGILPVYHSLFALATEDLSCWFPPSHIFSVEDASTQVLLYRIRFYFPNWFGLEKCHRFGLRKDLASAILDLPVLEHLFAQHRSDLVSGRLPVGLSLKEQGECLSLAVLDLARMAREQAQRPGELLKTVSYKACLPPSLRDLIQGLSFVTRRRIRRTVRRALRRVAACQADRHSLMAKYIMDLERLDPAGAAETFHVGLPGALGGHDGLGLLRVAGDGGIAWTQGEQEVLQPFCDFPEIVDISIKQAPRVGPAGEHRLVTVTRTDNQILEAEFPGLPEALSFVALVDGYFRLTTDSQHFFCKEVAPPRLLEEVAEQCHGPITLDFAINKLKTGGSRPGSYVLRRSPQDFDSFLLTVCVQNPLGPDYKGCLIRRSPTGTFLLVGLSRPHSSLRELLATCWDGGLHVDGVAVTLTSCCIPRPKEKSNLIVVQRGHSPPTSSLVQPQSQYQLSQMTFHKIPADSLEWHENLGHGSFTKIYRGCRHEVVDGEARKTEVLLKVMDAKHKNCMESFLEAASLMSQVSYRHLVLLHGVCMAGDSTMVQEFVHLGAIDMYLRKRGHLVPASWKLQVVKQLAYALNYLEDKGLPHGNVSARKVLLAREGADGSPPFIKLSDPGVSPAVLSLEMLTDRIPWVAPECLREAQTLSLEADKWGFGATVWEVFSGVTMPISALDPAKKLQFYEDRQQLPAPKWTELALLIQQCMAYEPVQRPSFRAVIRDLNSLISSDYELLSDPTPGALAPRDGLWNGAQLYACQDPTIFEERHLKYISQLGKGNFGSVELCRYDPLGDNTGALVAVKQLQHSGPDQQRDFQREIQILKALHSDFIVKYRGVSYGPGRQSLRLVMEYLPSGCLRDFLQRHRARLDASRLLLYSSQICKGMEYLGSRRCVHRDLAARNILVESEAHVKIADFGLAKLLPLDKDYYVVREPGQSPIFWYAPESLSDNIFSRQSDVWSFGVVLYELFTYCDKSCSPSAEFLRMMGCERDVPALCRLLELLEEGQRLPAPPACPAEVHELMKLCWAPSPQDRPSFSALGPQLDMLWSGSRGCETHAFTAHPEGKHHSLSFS
Description: 10 mM of Compound 1 was diluted in DMSO to prepare samples at four concentrations (50,000 nM, 5,000 nM, 500 nM and 50 nM). 10 mM of ATP was diluted at 1/40 in 1× kinase buffer to make a preparation. 1 mg/mL of Poly (Glu4, Tyr1) peptide was used as a stock solution. 100 ng/μL of JAK3 enzyme was diluted at 1/20 in 1× kinase buffer to make a preparation. 1 μL of ATP, 1 μL of Poly (Glu4, Tyr1) peptide, and 1 μL of Compound 1 prepared as above were mixed, after which 2 μL of JAK3 enzyme was finally added and reacted at 30° C. for 40 minutes. At this time, a tube without JAK3 enzyme was prepared as a blank and a tube without Compound 1 was prepared as a positive control group together (a final concentration of samples was 10,000 nM, 1,000 nM, 100 nM, and 10 nM).
as §1

[3] = biological target: JAK1 (Homo sapiens, UniProt P23458); test: ADP-Glo JAK1 kinase assay; type: biochemical
Description: 10 mM of (S)—N-(4-(1-(2-cyanoacetyl)-3-methyl-1,2,3,6-tetrahydropyridin-4-yl)-1H-pyrrolo[2,3-b]pyridin-6-yl)cyclopropanecarboxamide (hereinafter, referred to as Compound 1), which is the heterocyclic compound represented by formula II obtained according to Preparation Example 1, was diluted in DMSO to prepare samples at five concentrations (1,000 nM, 200 nM, 40 nM, 8 nM, and […]). 10 mM of ATP and 10 mg/mL of insulin receptor substrate (IRS) were diluted at 1/40 and 1/50, respectively, in 1× kinase buffer. In addition, 222 ng/μL of JAK1 enzyme was diluted at ⅛ in 1× kinase buffer to make a preparation. 1 μL of ATP, 1 μL of IRS, and 1 μL of Compound 1 prepared as above were mixed, after which 2 μL of JAK1 enzyme was finally added and reacted at 30° C. for 40 minutes. At this time, a tube without JAK1 enzyme was prepared for a blank and a tube without Compound 1 was prepared as a positive control group together (a final concentration of samples was 200 nM, 40 nM, 8 nM, 1.6 nM, and 0.32 nM).
as §1

[4] = system: DNCB-induced animal model (NC/Nga mice); test: DNCB-induced atopic dermatitis model (PO); type: in vivo; details: twice a day for 28 days, FIGS. 17 to 19
Description: A DNCB-induced animal model was prepared in substantially the same manner as the DNCB model (topical) in Experimental Example 6, except that the phosphate compound was orally administered, and the phosphate compound obtained according to Example 3 was administered. The phosphate compound was orally administered a total of 56 times twice a day for 28 days, and an administration interval was eight hours. The dosage (10 mL/kg) was calculated and determined based on the body weight measured on the day of administration, and intragastrically administered through the mouth of mice using a 1 ml syringe and a feeding needle. The control group was dosed with 0.5% methylcellulose (0.5% MC).

Sequence of JAK1 (P23458 whole entry, species assumed): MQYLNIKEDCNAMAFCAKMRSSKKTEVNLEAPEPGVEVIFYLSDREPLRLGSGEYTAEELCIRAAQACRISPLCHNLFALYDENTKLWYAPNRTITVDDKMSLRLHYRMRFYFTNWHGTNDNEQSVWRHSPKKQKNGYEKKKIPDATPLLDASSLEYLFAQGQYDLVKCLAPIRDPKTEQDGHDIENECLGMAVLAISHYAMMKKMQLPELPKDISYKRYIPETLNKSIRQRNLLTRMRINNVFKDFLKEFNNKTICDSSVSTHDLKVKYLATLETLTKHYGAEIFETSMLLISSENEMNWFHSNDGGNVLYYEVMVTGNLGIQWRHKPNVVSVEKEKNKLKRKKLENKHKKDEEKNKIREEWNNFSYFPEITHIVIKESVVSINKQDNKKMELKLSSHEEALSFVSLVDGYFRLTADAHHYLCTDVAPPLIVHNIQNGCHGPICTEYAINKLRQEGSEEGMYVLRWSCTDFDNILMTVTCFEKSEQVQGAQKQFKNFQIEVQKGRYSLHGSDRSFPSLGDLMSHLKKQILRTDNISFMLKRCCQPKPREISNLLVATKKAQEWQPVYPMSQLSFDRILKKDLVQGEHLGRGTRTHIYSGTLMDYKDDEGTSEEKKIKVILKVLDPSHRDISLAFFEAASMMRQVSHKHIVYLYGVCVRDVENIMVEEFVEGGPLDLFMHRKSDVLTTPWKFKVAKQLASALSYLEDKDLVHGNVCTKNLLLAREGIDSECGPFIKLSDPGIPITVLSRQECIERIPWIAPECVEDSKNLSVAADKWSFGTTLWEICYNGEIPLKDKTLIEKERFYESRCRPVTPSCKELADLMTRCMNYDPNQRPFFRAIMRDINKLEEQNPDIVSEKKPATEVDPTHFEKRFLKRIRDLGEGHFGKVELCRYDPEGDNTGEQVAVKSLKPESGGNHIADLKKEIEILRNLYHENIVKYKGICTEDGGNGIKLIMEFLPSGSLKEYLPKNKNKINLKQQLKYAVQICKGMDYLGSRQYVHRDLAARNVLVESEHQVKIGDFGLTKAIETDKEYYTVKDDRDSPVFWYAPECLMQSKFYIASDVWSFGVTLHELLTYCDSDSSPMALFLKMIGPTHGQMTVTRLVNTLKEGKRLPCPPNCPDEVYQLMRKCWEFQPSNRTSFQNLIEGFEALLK
Sequence of TYK2 (P29597 whole entry, species assumed): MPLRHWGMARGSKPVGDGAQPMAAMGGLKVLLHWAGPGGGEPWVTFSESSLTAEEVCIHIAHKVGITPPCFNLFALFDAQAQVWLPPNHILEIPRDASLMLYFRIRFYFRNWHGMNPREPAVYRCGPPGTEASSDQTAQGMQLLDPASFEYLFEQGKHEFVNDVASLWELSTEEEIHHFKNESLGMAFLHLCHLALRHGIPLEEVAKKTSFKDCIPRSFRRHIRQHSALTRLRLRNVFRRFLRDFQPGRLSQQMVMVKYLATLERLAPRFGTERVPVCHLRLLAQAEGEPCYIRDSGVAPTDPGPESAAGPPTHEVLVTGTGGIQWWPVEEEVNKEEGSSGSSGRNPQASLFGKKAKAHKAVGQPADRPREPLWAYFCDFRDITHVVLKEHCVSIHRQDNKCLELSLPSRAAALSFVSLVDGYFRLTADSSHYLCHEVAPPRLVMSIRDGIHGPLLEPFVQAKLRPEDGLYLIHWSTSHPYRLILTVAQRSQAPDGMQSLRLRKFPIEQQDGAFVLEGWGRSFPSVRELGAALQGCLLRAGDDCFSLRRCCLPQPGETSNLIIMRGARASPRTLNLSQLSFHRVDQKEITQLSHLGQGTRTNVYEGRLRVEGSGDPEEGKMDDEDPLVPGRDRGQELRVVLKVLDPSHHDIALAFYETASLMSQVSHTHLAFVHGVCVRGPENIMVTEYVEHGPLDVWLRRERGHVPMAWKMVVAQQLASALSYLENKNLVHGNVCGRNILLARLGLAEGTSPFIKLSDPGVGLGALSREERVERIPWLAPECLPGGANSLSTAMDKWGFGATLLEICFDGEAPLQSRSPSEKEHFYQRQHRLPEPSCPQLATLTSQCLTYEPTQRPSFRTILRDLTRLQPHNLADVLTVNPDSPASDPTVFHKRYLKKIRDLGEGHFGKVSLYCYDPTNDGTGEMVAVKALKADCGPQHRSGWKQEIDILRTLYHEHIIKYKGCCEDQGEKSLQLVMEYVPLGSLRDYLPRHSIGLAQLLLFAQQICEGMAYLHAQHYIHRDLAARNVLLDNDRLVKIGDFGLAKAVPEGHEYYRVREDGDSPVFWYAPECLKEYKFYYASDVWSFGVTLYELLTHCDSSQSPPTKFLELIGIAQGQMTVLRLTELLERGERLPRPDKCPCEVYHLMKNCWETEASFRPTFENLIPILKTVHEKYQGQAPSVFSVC

Row | Structure (SMILES) | IC50 [1] [nM] | IC50 [2] [nM] | IC50 ([3]; ADP-Glo kinase assay, read-out: IC50, In vitro enzyme JAK1) [nM] | JAK1 inhibitory activity ([3]; summary of Experimental Examples 1 to 3) | Symptoms of atopic dermatitis [4]
1 | C[C@@H]1CN(C(=O)CC#N)CC=C1c1cc(NC(=O)C2CC2)nc2[nH]ccc12 [Compound 1, (S)—N-(4-(1-(2-cyanoacetyl)-3-methyl-1,2,3,6-tetrahydropyridin-4-yl)-1H-pyrrolo[2,3-b]pyridin-6-yl)cyclopropanecarboxamide] | 22 | 315 | 3.8 | very excellent JAK1 inhibitory activity | 
2 | C[C@@H]1CN(C(=O)CC#N)CC=C1c1cc(NC(=O)C2CC2)nc2[nH]ccc12 [Example 3, (S)—N-(4-(1-(2-cyanoacetyl)-3-methyl-1,2,3,6-tetrahydropyridin-4-yl)-1H-pyrrolo[2,3-b]pyridin-6-yl)cyclopropanecarboxamide] |  |  |  |  | ameliorates symptoms of atopic dermatitis
